Test results as given in patent US10736898B2, “Positive allosteric modulators of the muscarinic acetylcholine receptor M4” (Vanderbilt University, priority 2017, dated 2020).

Columns and labels:
[1] = Rat brain:plasma distribution; format: in vivo
Experimental: (§1) Compound 1 was evaluated in several in vivo studies to investigate its metabolism and pharmacokinetics.

P450 1A2 = molecular target: T1, P450 1A2 (Homo sapiens, UniProt P05177); experiment: P450 1A2 inhibition; format: in vitro ADME
T1 sequence (P05177 1-516): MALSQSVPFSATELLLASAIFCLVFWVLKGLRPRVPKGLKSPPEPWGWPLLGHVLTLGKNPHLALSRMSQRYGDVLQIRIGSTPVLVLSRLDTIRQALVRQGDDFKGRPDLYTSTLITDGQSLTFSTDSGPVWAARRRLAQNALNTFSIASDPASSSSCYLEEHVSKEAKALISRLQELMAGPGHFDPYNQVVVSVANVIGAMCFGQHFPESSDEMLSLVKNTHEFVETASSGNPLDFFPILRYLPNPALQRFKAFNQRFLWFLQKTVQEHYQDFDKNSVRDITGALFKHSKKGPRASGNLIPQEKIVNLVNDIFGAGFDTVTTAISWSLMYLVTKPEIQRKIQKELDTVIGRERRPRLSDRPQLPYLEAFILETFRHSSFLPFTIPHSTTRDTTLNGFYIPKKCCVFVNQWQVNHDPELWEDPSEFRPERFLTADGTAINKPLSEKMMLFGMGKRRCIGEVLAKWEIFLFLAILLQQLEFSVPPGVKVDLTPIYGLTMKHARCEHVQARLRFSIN
Experimental: (§2) Compound 1 was evaluated in several well-known in vitro assays to investigate both metabolism and pharmacokinetics. Bidirectional permeability/efflux was determined in MDCK-MDR1 cells, which originate from transfection of Madin Darby canine kidney (MDCK) cells with the MDR1 gene. These assays were performed according to known methods as generally described in the following references: Conde-Ceide et al. ACS Med. Chem. Lett. 2015, 6, 716-720; Morris et al. J. Med. Chem. 2014, 57, 10192-10197; and Bubser et al. ACS Chem. Neurosci. 2014, 5, 920-942.

Rat CLint = format: in vitro ADME
Experimental: as §2

Dog CLint = format: in vitro ADME
Experimental: as §2

P450 3A4 = P450 3A4 (Homo sapiens, UniProt P08684); experiment: P450 3A4 inhibition; format: in vitro ADME
P450 3A4, sequence (P08684 whole entry): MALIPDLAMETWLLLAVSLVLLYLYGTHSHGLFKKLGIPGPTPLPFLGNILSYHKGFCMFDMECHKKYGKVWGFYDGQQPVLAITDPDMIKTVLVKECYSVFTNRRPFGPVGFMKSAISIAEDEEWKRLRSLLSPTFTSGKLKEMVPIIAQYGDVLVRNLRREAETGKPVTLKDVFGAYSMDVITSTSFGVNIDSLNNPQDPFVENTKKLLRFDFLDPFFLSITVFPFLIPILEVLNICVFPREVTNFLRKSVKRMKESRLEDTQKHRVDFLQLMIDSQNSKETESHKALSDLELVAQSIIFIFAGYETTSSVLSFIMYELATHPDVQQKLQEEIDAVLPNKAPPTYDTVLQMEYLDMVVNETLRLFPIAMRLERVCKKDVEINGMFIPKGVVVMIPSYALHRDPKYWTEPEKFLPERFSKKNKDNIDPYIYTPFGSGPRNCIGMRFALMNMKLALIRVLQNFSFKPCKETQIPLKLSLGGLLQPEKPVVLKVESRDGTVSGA
Experimental: as §2

Rat Fu (plasma) = format: in vitro ADME
Experimental: as §2

Human M4 = molecular target: T2, Human M4 (Homo sapiens, UniProt P08173); experiment: mAChR M4 cell-based functional assay (calcium flux, potentiation of EC20 acetylcholine response)
T2 construct: expressed in transfected cells
T2 sequence (P08173 1-479): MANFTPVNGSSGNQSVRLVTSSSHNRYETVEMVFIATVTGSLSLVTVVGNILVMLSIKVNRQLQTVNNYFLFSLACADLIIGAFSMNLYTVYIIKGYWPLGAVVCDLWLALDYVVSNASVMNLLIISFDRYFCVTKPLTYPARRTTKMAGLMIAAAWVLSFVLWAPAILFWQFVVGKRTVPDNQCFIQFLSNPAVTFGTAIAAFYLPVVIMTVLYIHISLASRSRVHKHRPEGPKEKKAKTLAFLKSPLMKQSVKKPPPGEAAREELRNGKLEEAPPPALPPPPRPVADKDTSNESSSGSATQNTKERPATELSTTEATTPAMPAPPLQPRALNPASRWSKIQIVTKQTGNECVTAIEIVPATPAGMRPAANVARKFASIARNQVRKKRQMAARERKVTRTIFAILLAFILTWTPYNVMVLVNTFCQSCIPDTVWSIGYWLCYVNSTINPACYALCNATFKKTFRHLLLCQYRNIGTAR
Experimental: Human M4 cDNA, along with the chimeric G protein Gqi5, were transfected into Chinese hamster ovary (CHO-K1) cells purchased from the American Type Culture Collection using commercially available Lipofectamine 2000 transfection reagent (Dalby, B. et al., Methods (2004) 33(2), 95-103). hM4-Gqi5 cells were grown in Ham's F-12 medium containing 10% heat-inactivated fetal bovine serum (FBS), 20 mM HEPES, 50 μg/mL G418 sulfate (CAS #108321-42-2), and 500 μg/mL Hygromycin B. rM4-Gqi5 cells were grown in DMEM containing 10% heat-inactivated FBS, 20 mM HEPES, 400 μg/mL G418 sulfate, and 500 μg/mL Hygromycin B.
For high throughput measurement of agonist-evoked increases in intracellular calcium, CHO-K1 cells stably expressing muscarinic receptors were plated in growth medium lacking G418 sulfate and hygromycin at 15,000 cells/20 μL/well in Greiner 384-well black-walled, tissue culture (TC)-treated, clear-bottom plates (VWR). Cells were incubated overnight at 37° C. and 5% CO2. The next day, cells were washed using an ELX 405 (BioTek) with assay buffer; the final volume was then aspirated to 20 μL. […] Dye was removed by washing with the ELX 405 and the final volume was aspirated to 20 μL. Compound master plates were formatted in an 11 point concentration-response curve (CRC) format (1:3 dilutions) in 100% DMSO with a starting concentration of 10 mM using a BRAVO liquid handler (Agilent). Test compound CRCs were then transferred to daughter plates (240 nL) using the Echo acoustic plate reformatter (Labcyte, Sunnyvale, Calif.) and then diluted into assay buffer (40 μL) to a 2× stock using a Thermo Fisher Combi (Thermo Fisher Scientific, Waltham, Mass.).
Calcium flux was measured using the Functional Drug Screening System (FDSS) 6000 or 7000 (Hamamatsu Corporation, Tokyo, Japan) as an increase in the fluorescent static ratio. Compounds were applied to cells (20 μL, 2×) using the automated system of the FDSS at 2-4 seconds into the protocol and the data were collected at 1 Hz. At 144 seconds, 10 μL of an EC20 concentration of the muscarinic receptor agonist acetylcholine was added (5×), followed by the addition of 12 μL of an EC80 concentration of acetylcholine at the 230 second time point (5×). Agonist activity was analyzed as a concentration-dependent increase in calcium mobilization upon compound addition. Positive allosteric modulator activity was analyzed as a concentration-dependent increase in the EC20 acetylcholine response. […] Antagonist activity was analyzed as a concentration-dependent decrease in the EC80 acetylcholine response. Concentration-response curves were generated using a four-parameter logistical equation in XLFit curve fitting software (IDBS, Bridgewater, N.J.) for Excel (Microsoft, Redmond, Wash.) or Prism (GraphPad Software, Inc., San Diego, Calif.).

MDR1 = experiment: Bidirectional permeability/efflux in MDCK-MDR1 cells; format: in vitro ADME, canine; conditions: dog
Experimental: as §2

MDCK-MDR1 cells = experiment: as above; format: in vitro ADME, canine; conditions: efflux ratio
Experimental: as §2

Human Fu (plasma) = format: in vitro ADME
Experimental: as §2

[2] = In vivo pharmacokinetics in dogs (IV and PO)
Experimental: as §1
Dogs (male, Beagle, weighing approximately 8-15 kg, n=2) were dosed intravenously (0.5 mg/kg) via cephalic vein and orally (3 mg/kg) by gavage. Blood samples were collected from the jugular vein via needlestick. Blood samples were obtained at 0.083, 0.25, 0.5, 1, 2, 4, 6, 10, and 24 hours (IV) and 0.25, 0.5, 1, 2, 4, 6, 10, and 24 hours (PO) and plasma harvested for analysis. Sample preparation and bioanalysis was conducted as described above.

Cc1nc(C)c2c(n1)sc1c(NCc3ccc(C(C)(C)O)cc3)ncnc12 [Compound 1, 2-(4-(((7,9-Dimethylthieno[2,3-d:4,5-d′]dipyrimidin-4-yl)amino)methyl)phenyl)propan-2-ol]
Kp [1]: 0.74 | Kp uu ([1]; unbound): 0.5 | IC50 (P450 1A2): 23 µM | CLint scaled (Rat CLint): 78 mL/min/kg | CLint scaled (Dog CLint): 17 mL/min/kg | IC50 (P450 3A4): 17 µM | fraction unbound (Rat Fu (plasma)): 0.024 | Emax at 30 µM (Human M4; % ACh maximum at 30 μM, human M4): 70.4% | EC50 (Human M4; CHO-K1 cells with human M4 and Gqi5, increase in EC20 acetylcholine response): 1.25 µM | Papp A→B (MDR1): 46.7 ×10⁻⁶ cm/s | MDCK-MDR1 ER (MDCK-MDR1 cells): 1.5 (Papp A→B: | fraction unbound (Human Fu (plasma)): 0.014 | Dog oral F ([2]; 3 mg/kg PO): 28% | half-life ([2]; male, Beagle, dog, plasma, read-out: Dog Elim. t1/2 (converted)): 2.4 h | clearance ([2]; male, Beagle, plasma, dog, IV 0.5 mg/kg, read-out: Dog CLp): 24 mL/min/kg | Vd ([2]; male, Beagle, plasma, dog, IV 0.5 mg/kg, read-out: Dog Vss): 2.3 L/kg
